Patent US20140274992A1, “CEFTOLOZANE PHARMACEUTICAL COMPOSITIONS” (Cubist Pharmaceuticals, Inc., priority 2013, published 2014)

Experiment: Intrinsic pH of ceftolozane in solution
Assay type: physicochemical
Details: solution (2%)
Procedure: A formulation close to physiologic pH was targeted. This necessitates an alkalizing agent due to intrinsic pH 1.92 of ceftolozane in solution (2%). The initial study of alkalizing agents included sodium hydroxide, L-arginine, tris, sodium bicarbonate, meglumine, diethanolamine, and triethanolamine. Samples containing 100 mg ceftolozane sulfate, 22.9 mg sodium chloride, 200 mg maltose, and 2 mg citric acid anhydrous were prepared and adjusted to about pH 4. The samples were lyophilized and powders stored at 70° C. for 3 days, 60° C. for 3, 6 and 9 days and at 40° C. for one month. The stored samples were then analyzed for ceftolozane content.

Cn1c(N)c(NC(=O)NCCN)c[n+]1CC1=C(C(=O)[O-])N2C(=O)[C@@H](NC(=O)/C(=N\OC(C)(C)C(=O)O)c3nsc(N)n3)[C@H]2SC1 [ceftolozane]
intrinsic pH of ceftolozane in solution: 1.92
